Data taken from patent publication US7960393B2, “Pyrimidine derivatives useful for the treatment of diseases mediated by CRTH2” (Actimis Pharmaceuticals, Inc., priority 2002, dated 2011).
Where two headings read alike, the source gives them in different places.

Legend:
human CRTH2 = molecular target: T1, human CRTH2 (Homo sapiens, UniProt Q9Y5Y4); assay: Measurement of Ca2+ mobilization in the human CRTH2-transfected L1.2 cell line (Assay 1); assay type: cell-based
T1 construct: expressed in transfected cells; host or cells: L1.2 cells, pEAK expression vector, puromycin-selected
T1 sequence (Q9Y5Y4 1-395): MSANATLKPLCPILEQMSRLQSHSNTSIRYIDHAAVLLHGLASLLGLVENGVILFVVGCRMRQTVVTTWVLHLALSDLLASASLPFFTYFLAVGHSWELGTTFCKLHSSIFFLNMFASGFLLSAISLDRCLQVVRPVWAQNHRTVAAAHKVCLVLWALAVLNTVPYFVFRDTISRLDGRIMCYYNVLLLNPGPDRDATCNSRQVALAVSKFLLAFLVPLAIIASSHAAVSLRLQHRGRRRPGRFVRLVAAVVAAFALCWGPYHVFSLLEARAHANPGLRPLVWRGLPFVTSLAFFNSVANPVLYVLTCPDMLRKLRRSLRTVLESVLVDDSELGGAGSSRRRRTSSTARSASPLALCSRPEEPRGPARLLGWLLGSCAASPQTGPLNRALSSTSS
Description: Human CRTH2 cDNA was amplified from human eosinophil cDNA with gene specific primers containing restriction sites for cloning into pEAK vector (Edge Bio Systems). The human CRTH2 cDNA was cloned into the mammalian expression vector pEAK. This expression plasmid (40 μg) was transfected into L1.2 cells, at a cell density of 1×10^7 cells/500 μl, by using electroporation apparatus (Gene Pulser II, BioRad) at 250V/1,000 μF. One day after the transfection, puromycin (1 μg/ml, Sigma) was added into the cell culture plates. Two weeks after the transfection, grown cells were picked up for further growth.
[Measurement of Ca^2+ Mobilization in the Human CRTH2-Transfected L1.2 Cell Line] (Assay 1)
Ca^2+ loading buffer was prepared by mixing 5 μl of Fluo-3AM (2 mM in DMSO, final 1 μM, Molecular Probes) and 10 μl of pluronic F-127 (Molecular Probes) and diluting the resulting mixture in 10 ml of Ca^2+ assay buffer (20 mM HEPES pH 7.6, 0.1% BSA, 1 mM probenecid, Hanks' solution). The CRTH2 transfected cells which were prepared in Example 1 were washed with PBS, resuspended in Ca^2+ loading buffer at 1×10^7 cells/ml, and incubated for 60 min at room temperature. After incubation, cells were washed and resuspended in Ca^2+ assay buffer, then dispensed into transparent-bottom 96-well plates (#3631, Costar) at 2×10^5 cells/well. Cells were incubated with various concentrations of test compound for 5 minutes at room temperature. The emitted 480 nm fluorescence was measured on FDSS6000, a Ca^2+-measurement apparatus (Hamamatsu Photonics, Hamamatsu, Japan).
Assay results in Assay 1 are shown in Examples and tables of the Examples below. The data corresponds to the compounds as yielded by solid phase synthesis and thus to levels of purity of about 40 to 90%. For practical reasons, the compounds are grouped in four classes of activity as follows: IC50=A(< or =)10 nM<B(< or =)100 nM<C(< or =)500 nM<D

[1] = PGD2-induced Ca2+ mobilization in CRTH2-transfected L1.2 cells, compounds as yielded by solid phase synthesis, purity about 40 to 90%, read-out: Activity class

SMILES | melting point | IC50 (human CRTH2; [1]) | IC50 (human CRTH2)
CN(CC(=O)NC1CCCC1)c1nc(Cc2ccc(NC(=O)c3ccccn3)cc2)nc(Cl)c1CC(=O)O [Example 1-2] | > 135 °C | > 500 nM | 
CN(C)c1nc(Cc2ccc(NC(=O)[C@@H]3CCc4ccccc4O3)cc2)nc(Cl)c1CC(=O)O [Example 1-67] | > 120 °C | < 10 nM | 
CN(C)c1nc(Cc2ccc(NC(=O)/C=C/c3ccc(Cl)cc3)cc2)ncc1CC(=O)O [Example 2-11] | 136 to 140 °C | < 10 nM | 
CN(C)c1nc(Cc2ccc(NC(=O)c3ccc(C(F)(F)F)cc3)cc2)nc(N2CCCC2)c1CC(=O)O [Example 7-12] | 144 to 147 °C | 10 to 100 nM | 
CN(CC(=O)NC1CCCC1)c1nc(Cc2ccc(NC(=O)CC3Cc4ccccc4C3)cc2)nc(Cl)c1CC(=O)O [Example 1-28] | > 110 °C | < 10 nM | 
CN(C)c1nc(Cc2ccc(NC(=O)/C=C/c3ccc(Cl)cc3)cc2)nc(N(C)C)c1CC(=O)O [Example 7-8] | 162 °C | < 10 nM | 
CN(CC(=O)N1CCCC1)c1nc(Cc2ccc(NC(=O)c3ccc4ccccc4c3)cc2)nc(Cl)c1CC(=O)O [Example 1-3] | 177 °C | < 10 nM | 
CN(C)c1nc(Cc2ccc(NC(=O)c3ccc(F)cc3)cc2)nc(N2CCOCC2)c1CC(=O)O [Example 7-30] | 197 to 198 °C | 100 to 500 nM | 
CN(C)c1nc(Cc2ccc(NC(=O)OCc3ccccc3)cc2)nc(N(C)C)c1CC(=O)O [Example 9-7] | 100 °C | < 10 nM | 
CN(C)c1nc(Cc2ccc(NC(=O)/C=C/c3ccccc3)cc2)nc(Cl)c1CC(=O)O [Example 1-33] | > 160 °C | < 10 nM | 
COc1ccc(C(=O)Nc2ccc(Cc3ncc(CC(=O)O)c(N(C)C)n3)cc2)cc1OC [Example 2-12] | 106 to 110 °C | 100 to 500 nM | 
CN(C)c1nc(Cc2ccc(NC(=O)c3ccc(Cl)c(Cl)c3)cc2)nc(N2CCCC2)c1CC(=O)O [Example 7-13] | 150 to 152 °C | 100 to 500 nM | 
COCCN(C)c1nc(Cc2ccc(NC(=O)c3ccc4ccccc4c3)cc2)nc(Cl)c1CC(=O)O [Example 3-5] | 144 °C | < 10 nM | 
CCc1nc(Cc2ccc(NC(=O)c3ccc4ccccc4c3)cc2)nc(N(C)C)c1CC(=O)O [Example 8-8] | 148 to 150 °C | < 10 nM | 
O=C(O)Cc1c(Cl)nc(Cc2ccc(NC(=O)c3ccc(C(F)(F)F)cc3)cc2)nc1N1CCCC1 [Example 1-64] | 162 °C | < 10 nM | 
O=C(O)Cc1c(Cl)nc(Cc2ccc(NC(=O)c3ccc([N+](=O)[O-])cc3)cc2)nc1N1CCCC1 [Example 1-53] | 134 °C | 10 to 100 nM | 
CN(CC(=O)NC1CCCC1)c1nc(Cc2ccc(NC(=O)CCc3ccccc3)cc2)nc(Cl)c1CC(=O)O [Example 1-14] | > 139 °C | < 10 nM | 
CN(CC(=O)NC1CCCC1)c1nc(Cc2ccc(NCc3ccc4ccccc4c3)cc2)nc(Cl)c1CC(=O)O [Example 5-3] | > 96 °C | 100 to 500 nM | 
CC(=O)Nc1ccc(Cc2nc(Cl)c(CC(=O)O)c(N(C)CC(=O)NC3CCCC3)n2)cc1 [Example 1-10] | > 118 °C | > 500 nM | 
CN(C)c1nc(Cc2ccc(NC(=O)OCc3ccc(F)cc3)cc2)ncc1CC(=O)O [Example 9-2, {4-(dimethylamino)-2-[4-({[(4-fluorobenzyl)oxy]carbonyl}amino)benzyl]pyrimidin-5-yl}acetic acid] | 95 to 97 °C |  | < 10 nM
COc1ccc(/C=C/C(=O)Nc2ccc(Cc3nc(N(C)C)c(CC(=O)O)c(N4CCOCC4)n3)cc2)cc1 [Example 7-25] | 192 to 195 °C (dec.) | < 10 nM | 
CN(CC(=O)NC1CCCC1)c1nc(Cc2ccc(NC(=O)CC3CCCCC3)cc2)nc(Cl)c1CC(=O)O [Example 1-13] | > 149 °C | 10 to 100 nM | 
